Experimental data published in US20150141375A1 (priority 2009, published 2015).
Several values for one entry are separate records, joined by “and”; a condition that tells them apart may be missing. Equal values may be shown once. Read-outs that look alike come from different tables or passages of the source.

Tests used:
[1] = PK comparison, mouse; type: in vivo; settings: in vivo, 2 mg/kg, calculated from doses of 2 and 10 mg/kg, analyte = label
From the text: Table 4 illustrates the PK comparison of CMX001 with CMX021 and CMX064 for mouse, rabbit and human.

[2] = tested on: SVG cells; assay: SVG cell viability / cell number (MTS, alamar blue, hematoxylin); type: cell-based, human
Experimental: (§1) Quantification of cell viability using the MTS [3-(4,5-dimethylthiazol-2-yl)-5-(3-carboxymethoxyphenyl)-2-(4-sulfophenyl)-2H-tetrazolium] assay is based on bioactivity of mitochondrial dehydrogenase in living cells, which converts colorless tetrazolium salt to a colored formazan. MTS assays were performed according to manufacturer's instructions (Promega, Madison Wis.). Briefly, culture medium was removed from cells and 50 μL of PBS was added into each well of a 96 well plate. Ten μL of MTS reagent were added to wells of cells, and to a well without cells to determine background. Mixtures were incubated at 37° C. for 2 hours and the absorbance was measured at 490 nm. Trypan blue staining was performed on identical cultures to correlate MTS values with cell viability. The final values indicated are the result from 3 replicates. The value for the non-treated control was set to 100% and all other values are represented as a percentage of the control. Alamar blue (AB) assay.
(§2) Quantification of cell viability using the alamar blue (AB) assay was performed according to the manufacturer's instructions (Invitrogen, Gaithersburg, Md.). Briefly, 10 μL of AB reagent was added to each well of a 96 well dish containing cells or without cells to determine background. Mixtures were incubated at 37° C. for 6 hours and the absorbance measured at 570 nm using 600 nm as a reference wavelength. The value for the non-treated control was set to 100% and all other values are represented as a percentage of the control.
(§3) Because cell density in cultures processed for in situ DNA hybridization could not be measured by MTS or AB assays, cell density was approximated in cell cultures processed by quantifying hematoxylin staining intensity. Coverslips containing cells were prepared for in situ DNA hybridization and co-stained with hematoxylin. Subsequently, each coverslip was scanned and the hematoxylin intensities quantified using ImageJ. To determine the total cell number per coverslip, images were acquired at 10 random positions at 100× magnification. Cells were counted throughout each image and the average cell number per slide was generated by averaging counts from the 10 images for each experimental group. Exactly 900 images at 100× magnification cover the surface of an 18 mm×18 mm coverslip.

[3] = as above; type: cell-based, human; settings: human; for cytotoxicity at 1 μM: read-out: reduction in viability (MTS)
Experimental: as §1, §2, §3

[4] = Safety and pharmacokinetics of CMX001 in healthy volunteers; type: in vivo, human; settings: for AUC / Cmax: blood, Human, analyte = label
Experimental: An initial study was conducted to evaluate the safety and pharmacokinetics of CMX001 in healthy volunteers. The study consisted of a single dose arm (SD) and a multiple dose arm (MD). In the single dose arm 7 cohorts of 6 subjects were treated (4 subjects received active drug and 2 placebo). Enrollment was staggered as 2 subjects (one active, one placebo) followed by 4 subjects (Groups A and B). The estimated single doses for the two highest doses treated for a […] subject were 40 mg (0.6 mg/kg cohort 6) and 70 mg (1 mg/kg cohort 7). In the multiple dose arm, cohort 6MD received 0.1 mg/kg on Day 0, 6 and 12; Cohort 7MD received 0.2 mg/kg on Day 0, 6 and 12. Levels of cidofovir, CMX001 and CMX064 (major metabolite) were measured in blood and urine of subjects during the course of the study. Gastrointestinal (GI) monitoring of the subjects included (a) monitoring for clinical signs of GI adverse events, (b) monitoring for clinical symptoms using a visual Analog Scale, (c) monitoring for appetite loss/anorexia, nausea, vomiting, diarrhea, constipation and intestinal gas/bloating, (d) laboratory tests for fecal occult blood; serum electrolytes, urine specific gravity, BUN/creatinine ratio; serum albumin, and lipids, and (e) diagnostic studies (the Wireless capsule endoscopy (PillCam®, Given Imaging)).

[5] = Clearance and organ distribution in mouse; type: in vivo; settings: oral 5 mg/kg [C2-14C]CMX001, four hours
[6] = Single-dose, dose-escalation study in healthy adult volunteers; type: in vivo, human
Experimental: A randomized double-blind, placebo-controlled, single-dose, dose-escalation study of CMX001 in healthy adult volunteers was conducted.
Nine single dose cohorts-CMX001:placebo (2:1)
Six subjects per cohort; 36 received CMX001; 18 received placebo
Highest dose was 2 mg/kg (140 mg in a 70 kg person)
Six multiple dose cohorts-CMX001:placebo (2:1) (3 doses over 3 weeks)
Five subjects per cohort; 20 received CMX001; 10 received placebo

[7] = tested on: JCV; assay: Established JCV infection of SVG cells, in situ DNA hybridization; type: cell-based, JC virus; settings: 0.1 μM, four days
[8] = tested on: CMV; settings: human, in vivo
[9] = tested on: HPV 11; assay: In vitro potency against dsDNA viruses: HPV 11; type: cell-based
[10] = tested on: HSV-1; assay: In vitro potency against dsDNA viruses: HSV-1; type: cell-based
[11] = tested on: Adenovirus; assay: Adenovirus IC50s for CMX001, serotypes/isolates; type: cell-based
[12] = cohort 6, 600 μg/kg, still blinded
[13] = human, oral, CMX001 2 mg/kg single dose, plasma, Mean

With `CCCCCCCCCCCCCCCCOCCCOP(=O)(O)CO[C@H](CO)Cn1ccc(N)nc1=O` [CMX001, Hexadecyloxypropyl-cidofovir] the AUC ([1]; after CMX001) was 83.1 ng·h/mL, the Cmax ([1]; after CMX001, read-out: Cmax) was 7.9 ng/mL and the “reduction in total cell number (hematoxylin)” value (from here on “reduction in total cell number”) ([2]; 0.01 μM) was “did not result in significant reduction”. For the same molecule, the “reduction in total cell number” value ([2]; 0.03 μM) was 14%, the “reduction in total cell number” value ([2]; 0.07 μM) was 39% and the “reduction in total cell number” value ([2]; 0.1 μM) was 46%. The “cell viability (MTS)” value ([2]; 0.01 or 0.1 μM, non-infected or JCV-infected (established infection) SVG cells) was “did not alter cell viability”, the “concentrations at which cytotoxicity was observed” value ([2]; SVG cells) was no less than 1000 nM and the cytotoxicity at 1 μM ([3]; JCV-infected SVG cells (established infection), 1 μM, JCV-infected cells, established infection) was 40%. It also gave a cytotoxicity at 4 days, 0.01 μM ([3]; SVG cells, 0.01 μM, 4 days, read-out: reduction in cell viability (alamar blue)) of 6%, a cytotoxicity at 4 days, 0.1 μM ([3]; SVG cells, 0.1 μM, 4 days, read-out: reduction in cell viability (alamar blue)) of 11% and a cytotoxicity at 4 days, 1 μM ([3]; SVG cells, 1 μM, 4 days, read-out: reduction in cell viability (alamar blue)) of 32%. For the same molecule, the cytotoxicity at 1 μM ([3]; non-infected SVG cells, 1 μM, non-infected cells) was 15%, the AUC ([4]; 0.05 mg/kg, CMX001 0.050 mg/kg) was 36.3 ng·h/mL and the Cmax ([4]; 0.05 mg/kg, CMX001 0.050 mg/kg) was 5.63 ng/mL. For the same molecule, the AUC ([4]; 0.1 mg/kg, CMX001 0.100 mg/kg) was 133 ng·h/mL, the Cmax ([4]; 0.1 mg/kg, CMX001 0.100 mg/kg) was 10.6 ng/mL and the AUC ([4]; 0.2 mg/kg, CMX001 0.200 mg/kg) was 225 ng·h/mL. It also gave a Cmax ([4]; 0.2 mg/kg, CMX001 0.200 mg/kg) of 24.5 ng/mL, an AUC ([4]; 0.4 mg/kg, CMX001 0.400 mg/kg) of 526 ng·h/mL and a Cmax ([4]; 0.4 mg/kg, CMX001 0.400 mg/kg) of 68.1 ng/mL. The AUC ([4]; 0.6 mg/kg, CMX001 0.600 mg/kg) was 729 ng·h/mL, the Cmax ([4]; 0.6 mg/kg, CMX001 0.600 mg/kg) was 115 ng/mL and the AUC ([4]; CMX001 0.025 mg/kg) was 18.5 ng·h/mL. The Cmax ([4]; CMX001 0.025 mg/kg) was 2.36 ng/mL, the adverse events [4, 12] was “No serious adverse events (SAEs)” and the clinical laboratory values [4, 12] was “No drug associated clinically significant changes to clinical laboratory values”. For the same molecule, the availability and distribution [5] was “orally available and widely distributed”, the AUC(0-t) [6, 13] was 2610 ng·h/mL and the Cmax [6, 13] was 350 ng/mL. The Tmax [6, 13] was 3 h, the half-life [6, 13] was 24 h and the AUC(0-inf) ([6]; human, oral, CMX001 2 mg/kg single dose, plasma, Mean, read-out: AUCinf_obs) was 2650 ng·h/mL. For the same molecule, the tolerability ([6]; single and multiple doses) was “well tolerated”, the “elimination of JCV positive cells, normalized to total cell number” value [7] was 94% and the serious adverse events [8] was “No trends were observed in serious adverse events”. The EC50 ([9]; A-431, A431) was 17000 nM, the “Enhanced Activity” value ([9]; CMX001 versus cidofovir EC50) was 42 and the “Enhanced Activity” value ([10]; CMX001 versus cidofovir EC50) was 250. The EC50 ([10]; Human alphaherpesvirus 1, MRC5, MRC-5) was 60 nM, the IC50 ([11]; Ad14 (three isolates)) was 41 nM and 36 nM and the IC50 ([11]; unidentified adenovirus, Ad3) was 48 nM. The IC50 ([11]; unidentified adenovirus, Ad3 ATCC) was 34 nM, the IC50 ([11]; unidentified adenovirus, Ad4) was 32 nM and the IC50 ([11]; unidentified adenovirus, Ad4 ATCC) was 20 nM. The IC50 ([11]; unidentified adenovirus, Ad5 ATCC) was 46 nM, the IC50 ([11]; unidentified adenovirus, Ad7) was 34 nM and the IC50 ([11]; unidentified adenovirus, Ad7 ATCC) was 65 nM. For the same molecule, the IC50 ([11]; unidentified adenovirus, Ad14 (three isolates)) was 34 nM, the IC50 ([11]; unidentified adenovirus, Ad14 ATCC) was 22 nM and the IC50 ([11]; unidentified adenovirus, Ad21) was 44 nM.
